This passage reports EC50 results from patent publication US11384078B2, “5,6-fused-bicyclic compounds and compositions for the treatment of parasitic diseases” (NOVARTIS AG, priority 2017, dated 2022).

pEC50: −log10 of the molar value.

Type in all cases: cell-based
Assay [1] has as its system Leishmania donovani axenic amastigote. Description: In vitro assay for growth inhibition of Leishmania donovani axenic amastigote (Cell TiterGlo luminescence). Conditions: Leishmania donovani, L. donovani axenic amastigotes in vitro; read-out: L. donovani amastigotes EC50. An outline of the steps:
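Compound-treated wells received 9600 axenic amastigotes in RPMI 1640-based medium at pH 5.5 (37 °C, 5% CO2). Growth measured as ATP luminescence (CellTiter-Glo) after 2-day incubation; DMSO and reference compounds served as controls.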

Assay [2] deals with Trypanosoma cruzi amastigotes cultured in 3T3 fibroblast cells. The assay can be described thus: Assay for growth inhibition of kinetoplastid parasite Trypanosoma cruzi (beta-galactosidase Tulahuen strain, CPRG readout). The note with it: Trypanosoma cruzi, Fibroblast, T. cruzi amastigotes in 3T3 fibroblast cells; read-out: Buckner infectious T. cruzi EC50. The method, boiled down: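 3T3 fibroblasts (1,000 cells/well) plated overnight, treated with compound in DMSO, then infected with 10,000 Lac-Z-expressing Tulahuen trypomastigotes. After 6 days, 0.6 mM CPRG with 0.6% NP-40 added for 2 h at room temperature; absorbance gives relative intracellular amastigote numbers. Benznidazole and nifurtimox serve as positive controls.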

Assay [3] relates to Trypanosoma brucei brucei (Lister 427) strain. Description: Assay for growth inhibition against Trypanosoma brucei brucei (Cell TiterGlo ATP luminescence). Conditions: Trypanosoma brucei, T. brucei brucei (Lister 427); read-out: T. Brucei (HAT) EC50. The protocol: Assay for Growth Inhibition Against Trypanosoma brucei brucei
The proliferation is quantified by the addition of Cell TiterGlo® (Promega®) a luminescent cell viability assay that measures the number of viable cells in culture based on the quantification of cellular ATP amount, which is an indicator of metabolically active cells.
Trypanosoma brucei brucei (Lister 427) strain was grown in Hirumi 9 (HMI-9) media supplemented with 10% v/v fetal bovine serum (FBS) and 10% v/v serum plus. For measurement of cell proliferation inhibition, test compounds were three fold serially diluted in duplicates to 384-well white plates, resulting in 10 dilutions for each compound. A volume of 40 μL of T. b. brucei culture (10,000 parasites/mL) was added to each well, and the assay plates were incubated at 37° C. for 2 days in a CO2 incubator. Growth inhibition was monitored by measuring ATP levels, which, is used as a surrogate marker for growth. Relative luminescence units were measured using TECAN® M1000 after 30 min of adding 40 μl of Cell TiterGlo®. IC50 values were determined by analyzing the data using HELIOS software. IC50 is defined as the lowest concentration of the compound that inhibited 50% growth of the T. b. brucei wild type strain compared to untreated controls.

On to `CC(C)c1cnc2nn(-c3cc(NC(=O)C4(C)CC(F)(F)C4)ccc3F)cc2c1` [Compound 117, 3,3-difluoro-N-{4-fluoro-3-[5-(propan-2-yl)-2H-pyrazolo[3,4-b]pyridin-2-yl]phenyl}-1-methylcyclobutane-1-carboxamide], for which the pEC50 in assay [1] was 5.03; in assay [2], 5.26; in assay [3], 4.89.

Take `CC(C)c1cnc2nn(-c3cc(NC(=O)C4CC(F)(F)C4)ccc3F)cc2c1` [Compound 118, 3,3-difluoro-N-{4-fluoro-3-[5-(propan-2-yl)-2H-pyrazolo[3,4-b]pyridin-2-yl]phenyl}cyclobutane-1-carboxamide]: the pEC50 is 6.16 in assay [1], 5.96 in assay [2] and 5.85 in assay [3].

For the molecule `COC(=O)C12CC(C(=O)Nc3ccc(F)c(-n4cc5cc(C(C)C)cnc5n4)c3)(C1)C2` [Compound 120, methyl 3-({4-fluoro-3-[5-(propan-2-yl)-2H-pyrazolo[3,4-b]pyridin-2-yl]phenyl}carbamoyl)bicyclo[1.1.1]pentane-1-carboxylate], the pEC50 in assay [1] is 5.28; in assay [2] it was 5.37; in assay [3], 5.74.

As for `CC(C)c1cnc2nn(-c3cc(NC(=O)N4CC(F)C4)ccc3F)cc2c1` [Compound 156, 3-fluoro-N-{4-fluoro-3-[5-(propan-2-yl)-2H-pyrazolo[3,4-b]pyridin-2-yl]phenyl}azetidine-1-carboxamide], the values for the pEC50 in assay [1], in assay [2] and in assay [3] were 8.03, 8.29 and above 7.64, respectively.

For the molecule `C[C@H]1CN(c2cnc3nn(-c4cc(NC(=O)N5CC(F)C5)ccc4F)cc3c2)C[C@H](C)O1` [Compound 177, N-(3-{5-[(2S,6S)-2,6-dimethylmorpholin-4-yl]-2H-pyrazolo[3,4-b]pyridin-2-yl]-4-fluorophenyl)-3-fluoroazetidine-1-carboxamide], the pEC50 in assay [1] was 7.57; in assay [2], 7.26; in assay [3], above 7.64.

For the molecule `O=C(Nc1ccc(F)c(-n2cc3cc(N4CCS(=O)(=O)CC4)cnc3n2)c1)N1CC(F)C1` [Compound 178, N-{3-[5-(1,1-dioxo-1$|^6,4-thiomorpholin-4-yl)-2H-pyrazolo[3,4-b]pyridin-2-yl]-4-fluorophenyl}-3-fluoroazetidine-1-carboxamide], the values for the pEC50 in assay [1], in assay [2] and in assay [3] were 6.80, 5.80 and 7.44, respectively.

In the case of `CN1CCN(c2cnc3nn(-c4cc(NC(=O)N5CC(F)C5)ccc4F)cc3c2)CC1` [Compound 179, 3-fluoro-N-{4-fluoro-3-[5-(4-methylpiperazin-1-yl)-2H-pyrazolo[3,4-b]pyridin-2-yl]phenyl}azetidine-1-carboxamide], the pEC50 in assay [1] was 6.39; in assay [2], 7.37; in assay [3] it was above 7.64.

In the case of `O=C(Nc1ccc(F)c(-n2cc3cc(N4CCn5ccnc5C4)cnc3n2)c1)N1CC(F)C1` [Compound 180, 3-fluoro-N-[4-fluoro-3-(5-{5H,6H,7H,8H-imidazo[1,2-a]pyrazin-7-yl}-2H-pyrazolo[3,4-b]pyridin-2-yl)phenyl}azetidine-1-carboxamide], the pEC50 in assay [1] was 6.26; in assay [2], 5.41; in assay [3], 7.42.

Turning to `O=C(Nc1ccc(F)c(-n2cc3cc(N4CC(O)C4)cnc3n2)c1)N1CC(F)C1` [Compound 181, 3-fluoro-N-{4-fluoro-3-[5-(3-hydroxyazetidin-1-yl)-2H-pyrazolo[3,4-b]pyridin-2-yl]phenyl}azetidine-1-carboxamide], the pEC50 in assay [1] is 7.60; in assay [2], 6.09; in assay [3], above 7.64.

As to `O=C(Nc1ccc(F)c(-n2cc3cc(-c4ccncc4)cnc3n2)c1)N1CC(F)C1` [Compound 182, 3-fluoro-N-(4-fluoro-3-(5-(pyridin-4-yl)-2H-pyrazolo[3,4-b]pyridin-2-yl)phenyl)azetidine-1-carboxamide], the pEC50 in assay [1] is 8.12; in assay [2] it was 8.17; in assay [3] it was above 7.64.

In the case of `O=C(Nc1ccc(F)c(-n2cc3cc(N4CCC5(COC5)C4)cnc3n2)c1)N1CC(F)C1` [Compound 183, 3-fluoro-N-[4-fluoro-3-(5-{2-oxa-6-azaspiro[3.4]octan-6-yl}-2H-pyrazolo[3,4-b]pyridin-2-yl)phenyl}azetidine-1-carboxamide], the results for the pEC50 in assay [1], in assay [2] and in assay [3] were 7.92, 7.26 and above 7.64, respectively.

Consider `[2H]C([2H])([2H])N(C(=O)Nc1ccc(F)c(-n2cc3cc(C(C)C)cnc3n2)c1)C([2H])([2H])[2H]` [Compound 219, 1-{4-fluoro-3-[5-(propan-2-yl)-2H-pyrazolo[3,4-b]pyridin-2-yl]phenyl}-3,3-bis(^2H3)methylurea], for which the values for the pEC50 in assay [1], in assay [2] and in assay [3] were 7.47, 7.82 and 7.77, respectively.

In the case of `CC(C)c1cnc2nn(-c3cc(NC(=O)N4CCC5(CC5)C4)ccc3F)cc2c1` [Compound 220, N-{4-fluoro-3-[5-(propan-2-yl)-2H-pyrazolo[3,4-b]pyridin-2-yl]phenyl}-5-azaspiro[2.4]heptane-5-carboxamide], the negative-log EC50 (pEC50) in assay [1] was 7.82; in assay [2] it was 8.22; in assay [3], 7.38.

For `CC(C)c1cnc2nn(-c3cc(NC(=O)N4CC[C@@H](C)C4)ccc3F)cc2c1` [Compound 221, (3R)-N-{4-fluoro-3-[5-(propan-2-yl)-2H-pyrazolo[3,4-b]pyridin-2-yl]phenyl}-3-methylpyrrolidine-1-carboxamide], the pEC50 is 8.52 in assay [1], 9.00 in assay [2] and 8.05 in assay [3].

For the molecule `CC(C)c1cnc2nn(-c3cc(NC(=O)N4CC5(CC5)C4)ccc3F)cc2c1` [Compound 222, N-{4-fluoro-3-[5-(propan-2-yl)-2H-pyrazolo[3,4-b]pyridin-2-yl]phenyl}-5-azaspiro[2.3]hexane-5-carboxamide], the values for the pEC50 in assay [1], in assay [2] and in assay [3] were 7.10, 7.35 and 7.14, respectively.

As to `CC(C)c1cnc2nn(-c3cc(NC(=O)N4C[C@H]5C[C@H]5C4)ccc3F)cc2c1` [Compound 223, (1R,5S)-N-{4-fluoro-3-[5-(propan-2-yl)-2H-pyrazolo[3,4-b]pyridin-2-yl]phenyl}-3-azabicyclo[3.1.0]hexane-3-carboxamide], the values for the negative logarithm of the EC50 (pEC50) in assay [1], in assay [2] and in assay [3] were 7.09, 7.43 and 7.19, respectively.

Consider `CCN(C)C(=O)Nc1ccc(F)c(-n2cc3cc(C(C)C)cnc3n2)c1` [Compound 224, 3-ethyl-1-{4-fluoro-3-[5-(propan-2-yl)-2H-pyrazolo[3,4-b]pyridin-2-yl]phenyl}-3-methylurea], for which the values for the pEC50 in assay [1], in assay [2] and in assay [3] were 6.95, 7.34 and 7.17, respectively.

For the molecule `CO[C@@H]1CCN(C(=O)Nc2ccc(F)c(-n3cc4cc(C(C)C)cnc4n3)c2)C1` [Compound 225, (3R)-N-{4-fluoro-3-[5-(propan-2-yl)-2H-pyrazolo[3,4-b]pyridin-2-yl]phenyl}-3-methoxypyrrolidine-1-carboxamide], the pEC50 in assay [1] is 7.43; in assay [2] it was 7.30; in assay [3], 6.62.

For `CC(C)c1cnc2nn(-c3cc(NC(=O)N4CC5(CCC5)C4)ccc3F)cc2c1` [Compound 226, N-{4-fluoro-3-[5-(propan-2-yl)-2H-pyrazolo[3,4-b]pyridin-2-yl]phenyl}-2-azaspiro[3.3]heptane-2-carboxamide], the pEC50 is 6.87 in assay [1], 6.89 in assay [2] and 6.46 in assay [3].

Regarding `CC(C)c1cnc2nn(-c3cc(NC(=O)N(C)CC(F)(F)F)ccc3F)cc2c1` [Compound 227, 1-{4-fluoro-3-[5-(propan-2-yl)-2H-pyrazolo[3,4-b]pyridin-2-yl]phenyl}-3-methyl-3-(2,2,2-trifluoroethyl)urea], the pEC50 in assay [1] was 7.52; in assay [2] it was 7.96; in assay [3], 7.23.

Take `CC(C)c1cnc2nn(-c3cc(NC(=O)N(C)C)ccc3F)cc2c1` [Compound 228, 1-{4-fluoro-3-[5-(propan-2-yl)-2H-pyrazolo[3,4-b]pyridin-2-yl]phenyl}-3,3-dimethylurea]: the pEC50 is 7.51 in assay [1], 8.00 in assay [2] and 7.52 in assay [3].

As to `CC(C)c1cnc2nn(-c3cc(NC(=O)N4CCN5CCC4CC5)ccc3F)cc2c1` [Compound 229, N-{4-fluoro-3-[5-(propan-2-yl)-2H-pyrazolo[3,4-b]pyridin-2-yl]phenyl}-1,4-diazabicyclo[3.2.2]nonane-4-carboxamide], the values for the pEC50 in assay [1], in assay [2] and in assay [3] were 4.60, 4.81 and 4.90, respectively.
